Molecular target: T1, human SLC6A19 (Homo sapiens, UniProt Q695T7)
T1 construct: expressed in transfected cells
T1 sequence (Q695T7 1-634): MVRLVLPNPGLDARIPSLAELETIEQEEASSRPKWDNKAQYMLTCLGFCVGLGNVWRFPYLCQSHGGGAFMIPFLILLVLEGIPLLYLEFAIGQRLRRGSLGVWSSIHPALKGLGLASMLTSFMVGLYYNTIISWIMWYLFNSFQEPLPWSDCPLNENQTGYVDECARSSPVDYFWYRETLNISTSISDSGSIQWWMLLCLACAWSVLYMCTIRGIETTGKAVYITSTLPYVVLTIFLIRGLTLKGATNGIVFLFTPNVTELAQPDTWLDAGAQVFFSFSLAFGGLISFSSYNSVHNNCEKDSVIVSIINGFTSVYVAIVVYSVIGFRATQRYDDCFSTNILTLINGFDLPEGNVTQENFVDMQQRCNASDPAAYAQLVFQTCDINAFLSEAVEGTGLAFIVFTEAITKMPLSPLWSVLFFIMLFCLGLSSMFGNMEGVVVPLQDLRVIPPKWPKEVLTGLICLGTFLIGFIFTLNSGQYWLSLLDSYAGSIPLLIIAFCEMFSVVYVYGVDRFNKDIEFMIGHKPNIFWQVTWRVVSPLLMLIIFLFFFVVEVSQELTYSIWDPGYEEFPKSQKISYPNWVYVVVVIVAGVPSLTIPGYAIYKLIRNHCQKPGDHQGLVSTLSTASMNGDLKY
T1 sequence (Q9HBJ8 15-222 partner): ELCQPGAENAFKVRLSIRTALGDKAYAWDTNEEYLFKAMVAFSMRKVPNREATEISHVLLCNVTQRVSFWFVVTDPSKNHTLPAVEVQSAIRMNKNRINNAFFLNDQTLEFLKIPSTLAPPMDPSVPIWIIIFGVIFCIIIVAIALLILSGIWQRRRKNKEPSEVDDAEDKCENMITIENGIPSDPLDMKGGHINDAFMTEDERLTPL
Assay: Example B2: 13C6,15N-isoleucine uptake, RapidFire mass spectrometry, in CHO cells with doxycycline-inducible expression of human SLC6A19 and TMEM27
Format: cell-based
Details: read-out: SLC6A19_RapidFire Uptake Assay IC50
Procedure: Assay ready vials of CHO cells with doxycycline inducible expression of human SLC6A19 and TMEM27 were thawed, plated in T175 flasks containing DMEM/F12 media, 10% FBS, 100 Penicillin-Streptomycin, 1× UltraGlutamate, 1 mM Sodium Pyruvate, Sodium Bicarbonate (7.5 mL of 7.5% solution in 500 mL media final), […] Blasticidin, 150 µg/mL Hygromycin B Gold, and 500 µg/mL G418, and incubated (humidified, 37° C. with […]) for 48 hours. Media was then removed, flasks were washed with 20 mL of DPBS, and 5 mL of TryμLE™ Express was added to each flask to initiate cell dissociation. After 5 minutes, 10 mL of cell culture media was added to each flask and mixed. The cell suspension was collected and centrifuged for 5 minutes at 200×g. The supernatant was removed, and the pellet was resuspended in 10 mL of cell culture media. Resuspended cells were counted using a Vi-Cell. 30 μL/well (20,000 cells/well) of cell suspension was added to Poly-D-Lysine 384-well black/clear plates. Plates were incubated (humidified, 37° C. with 5% CO2) for 24 hours. To induce expression of human SLC6A19 and TMEM27, 10 μL of assay culture media containing 4 μg/mL doxycycline was added to each well. Assay plates were then incubated (humidified, 37° C. with 5% CO2) overnight. After incubation, the media was removed, and wells were washed 3 times with 40 μL of warmed DPBS. […] All compounds were plated in a duplicate 10-point dilution series that consisted of 2-fold dilutions. The plates were incubated (humidified, 37° C. with 5% CO2) with compound for 20 minutes. Afterwards, 20 μL/well of 2 mM 13C6,15N-1-isoleucine was added to each well and plates were incubated again (humidified, 37° C. with 5% CO2) for another 20 minutes. Assay buffer was then removed, and plates were washed. 70 μL/well of stop solution (75% acetonitrile, 25% HPLC grade water, 250 nM 1-leucine-1-13 C (RapidFire standard)) was added to each well. The plates were sealed and then placed in a −20° C. freezer for 20 minutes. The plates were thawed at room temperature for 20 minutes and then centrifuge for 20 minutes at 3000 rpm. Using an ABSciex API4000 mass spectrometer, processed samples were loaded onto the graphitic carbon SPE-column. The time for aspiration, load/wash, elution and re-equilibration time was 600, 1500, 3000 and 500 milliseconds, respectively. Peak areas were calculated using RapidFire Integrator software.

Row | SMILES | IC50
1 | CN(C(=O)NCc1cc2cc(Cl)ccc2[nH]1)[C@@H]1CCCN(C(=O)C2COC2)C1 [Compound 1, (R)-3-((5-chloro-1H-indol-2-yl)methyl)-1-methyl-1-(1-(oxetane-3-carbonyl)piperidin-3-yl)urea] | 252 nM
2 | CN(C(=O)NCc1cc2cc(Cl)ccc2[nH]1)[C@@H]1CCCN(C(=O)CN2CCOC2=O)C1 [Compound 2, (R)-3-((5-chloro-1H-indol-2-yl)methyl)-1-methyl-1-(1-(2-(2-oxooxazolidin-3-yl)acetyl)piperidin-3-yl)urea] | 3520 nM
3 | CN(C(=O)NCc1cc2cc(Cl)ccc2[nH]1)[C@@H]1CCCN(C(=O)CC#N)C1 [Compound 3, (R)-3-((5-chloro-1H-indol-2-yl)methyl)-1-(1-(2-cyanoacetyl)piperidin-3-yl)-1-methylurea] | 359 nM
4 | CN(C(=O)NCc1cc2cc(Cl)ccc2[nH]1)[C@@H]1CCCN(C(=O)CO)C1 [Compound 4, (R)-3-((5-chloro-1H-indol-2-yl)methyl)-1-(1-(2-hydroxyacetyl)piperidin-3-yl)-1-methylurea] | 620 nM
5 | CN(C(=O)NCc1cc2cc(Cl)ccc2[nH]1)[C@@H]1CCCN(C(=O)c2ccon2)C1 [Compound 5, (R)-3-((5-chloro-1H-indol-2-yl)methyl)-1-(1-(isoxazole-3-carbonyl)piperidin-3-yl)-1-methylurea] | 578 nM
6 | CN(C(=O)NCc1cc2cc(Cl)ccc2[nH]1)[C@@H]1CCCN(C(=O)c2ccno2)C1 [Compound 6, (R)-3-((5-chloro-1H-indol-2-yl)methyl)-1-(1-(isoxazole-5-carbonyl)piperidin-3-yl)-1-methylurea] | 198 nM
7 | CN(C(=O)NCc1cc2cc(Cl)ccc2[nH]1)[C@@H]1CCCN(C(=O)c2cocn2)C1 [Compound 7, (R)-3-((5-chloro-1H-indol-2-yl)methyl)-1-methyl-1-(1-(oxazole-4-carbonyl)piperidin-3-yl)urea] | 685 nM
8 | CN(C(=O)NCc1cc2cc(Cl)ccc2[nH]1)[C@@H]1CCCN(C(=O)CC(F)(F)F)C1 [Compound 8, (R)-3-((5-chloro-1H-indol-2-yl)methyl)-1-methyl-1-(1-(3,3,3-trifluoropropanoyl)piperidin-3-yl)urea] | 491 nM
9 | CN(C(=O)NCc1cc2cc(Cl)ccc2[nH]1)[C@@H]1CCCN(C(=O)c2nccs2)C1 [Compound 9, (R)-3-((5-chloro-1H-indol-2-yl)methyl)-1-methyl-1-(1-(thiazole-2-carbonyl)piperidin-3-yl)urea] | 5370 nM
10 | CCC(=O)N1CCC[C@@H](N(C)C(=O)NCc2cc3cc(Cl)ccc3[nH]2)C1 [Compound 10, (R)-3-((5-chloro-1H-indol-2-yl)methyl)-1-methyl-1-(1-propionylpiperidin-3-yl)urea] | 125 nM
11 | CN(C(=O)NCc1cc2cc(Cl)ccc2[nH]1)[C@@H]1CCCN(C(=O)c2cn[nH]c2)C1 [Compound 11, (R)-1-(1-(1H-pyrazole-4-carbonyl)piperidin-3-yl)-3-((5-chloro-1H-indol-2-yl)methyl)-1-methylurea] | 743 nM
12 | CC(O)C(=O)N1CCC[C@@H](N(C)C(=O)NCc2cc3cc(Cl)ccc3[nH]2)C1 (stereo partly drawn) [Compound 12, 3-((5-chloro-1H-indol-2-yl)methyl)-1-((3R)-1-(2-hydroxypropanoyl)piperidin-3-yl)-1-methylurea] | 354 nM
13 | CN(C(=O)NCc1cc2cc(Cl)ccc2[nH]1)[C@@H]1CCCN(C(=O)c2c[nH]cn2)C1 [Compound 13, (R)-1-(1-(1H-imidazole-4-carbonyl)piperidin-3-yl)-3-((5-chloro-1H-indol-2-yl)methyl)-1-methylurea] | 1610 nM
14 | CN(C(=O)NCc1cc2cc(Cl)ccc2[nH]1)[C@@H]1CCCN(C(=O)[C@H]2C[C@@H]2F)C1 [Compound 14, 3-((5-chloro-1H-indol-2-yl)methyl)-1-((R)-1-((1R,2S)-2-fluorocyclopropane-1-carbonyl)piperidin-3-yl)-1-methylurea] | 467 nM
15 | COCC(=O)N1CCC[C@@H](N(C)C(=O)NCc2cc3cc(Cl)ccc3[nH]2)C1 [Compound 15, (R)-3-((5-chloro-1H-indol-2-yl)methyl)-1-(1-(2-methoxyacetyl)piperidin-3-yl)-1-methylurea] | 539 nM
16 | CN(C(=O)NCc1cc2cc(Cl)ccc2[nH]1)[C@@H]1CCCN(C(=O)C2(F)CC2)C1 [Compound 16, (R)-3-((5-chloro-1H-indol-2-yl)methyl)-1-(1-(1-fluorocyclopropane-1-carbonyl)piperidin-3-yl)-1-methylurea] | > 4290 nM
17 | CN(C(=O)NCc1cc2cc(Cl)ccc2[nH]1)[C@@H]1CCCN(C(=O)C2CC2)C1 [Compound 17, (R)-3-((5-chloro-1H-indol-2-yl)methyl)-1-(1-(cyclopropanecarbonyl)piperidin-3-yl)-1-methylurea] | 151 nM
18 | CN(C(=O)NCc1cc2cc(Cl)ccc2[nH]1)[C@@H]1CCCN(C(=O)c2ncc[nH]2)C1 [Compound 18, (R)-1-(1-(1H-imidazole-2-carbonyl)piperidin-3-yl)-3-((5-chloro-1H-indol-2-yl)methyl)-1-methylurea] | 2250 nM
19 | CN(C(=O)NCc1cc2cc(Cl)ccc2[nH]1)[C@@H]1CCCN(C(=O)C2CC2(F)F)C1 (stereo partly drawn) [Compound 19, 3-((5-chloro-1H-indol-2-yl)methyl)-1-((3R)-1-(2,2-difluorocyclopropane-1-carbonyl)piperidin-3-yl)-1-methylurea] | 484 nM
20 | CN(C(=O)NCc1cc2cc(Cl)ccc2[nH]1)[C@@H]1CCCN(C(=O)c2cncnc2)C1 [Compound 20, (R)-3-((5-chloro-1H-indol-2-yl)methyl)-1-methyl-1-(1-(pyrimidine-5-carbonyl)piperidin-3-yl)urea] | 8960 nM
21 | CN(C(=O)NCc1cc2cc(Cl)ccc2[nH]1)[C@@H]1CCCN(C(=O)c2ncccn2)C1 [Compound 22, (R)-3-((5-chloro-1H-indol-2-yl)methyl)-1-methyl-1-(1-(pyrimidine-2-carbonyl)piperidin-3-yl)urea] | 4370 nM
22 | CN(C(=O)NCc1cc2cc(Cl)ccc2[nH]1)[C@@H]1CCCN(C(=O)c2ccnnc2)C1 [Compound 23, (R)-3-((5-chloro-1H-indol-2-yl)methyl)-1-methyl-1-(1-(pyridazine-4-carbonyl)piperidin-3-yl)urea] | 5840 nM
23 | CN(C(=O)NCc1cc2cc(Cl)ccc2[nH]1)[C@@H]1CCCN(C(=O)c2ncc(F)cn2)C1 [Compound 24, (R)-3-((5-chloro-1H-indol-2-yl)methyl)-1-(1-(5-fluoropyrimidine-2-carbonyl)piperidin-3-yl)-1-methylurea] | 4200 nM
24 | Cc1n[nH]nc1C(=O)N1CCC[C@@H](N(C)C(=O)NCc2cc3cc(Cl)ccc3[nH]2)C1 [Compound 25, (R)-3-((5-chloro-1H-indol-2-yl)methyl)-1-methyl-1-(1-(5-methyl-2H-1,2,3-triazole-4-carbonyl)piperidin-3-yl)urea] | 11600 nM
25 | CN(C(=O)NCc1cc2cc(Cl)ccc2[nH]1)[C@@H]1CCCN(C(=O)c2cnnn2C)C1 [Compound 26, (R)-3-((5-chloro-1H-indol-2-yl)methyl)-1-methyl-1-(1-(1-methyl-1H-1,2,3-triazole-5-carbonyl)piperidin-3-yl)urea] | 5260 nM
